# Laboratory results published in paper PMC7828231, “Delphinidin Increases the Sensitivity of Ovarian Cancer Cell Lines to 3-bromopyruvate” (International Journal of Molecular Sciences, 2021).
# Legend:
# [1] = test system: four OC cell lines; set-up: method as in PMID 26259240; conditions: cited from earlier work
# [2] = test system: Multidrug-resistant SKOV3 cells; set-up: method as in PMID 22954696; conditions: cited from earlier work
# [3] = test system: not multi-resistant SKOV3 cells; set-up: method as in PMID 22954696; conditions: cited from earlier work
# [4] = test system: SKOV3 cells; test: Apoptosis and necrosis assay (RealTime-Glo Annexin V); type: cell-based, human; conditions: after 24 h
# Experimental: The levels of apoptosis and necrosis were assayed using the RealTime-Glo™ Annexin V Apoptosis and Necrosis Assay. Cells were seeded into a white 96-well plate with optical bottom, cultured and treated adequately, as stated above. After 24 h, 100 μL of the freshly prepared reagent was added to each well according to the manufacturer’s protocols. The fluorescence and luminescence were measured according to the protocols.
# [5] = test system: DU145 cell line; set-up: method as in PMID 27462923; conditions: DU145, up to 150 µM; cited from earlier work
# [6] = test system: PC3 cell line; set-up: method as in PMID 27462923; conditions: PC3, up to 150 µM; cited from earlier work
# [7] = test system: LnCaP cells; set-up: method as in PMID 27462923; conditions: starting from a concentration of 50 µM; cited from earlier work
# [8] = test system: NHF cells; set-up: method as in PMID 15016660; conditions: 100–200 µM; cited from earlier work
# [9] = test system: Caco-2 cells; set-up: method as in PMID 15016660; conditions: Caco-2, 100–200 µM; cited from earlier work
# [10] = test system: HeLa cells; set-up: method as in PMID 15016660; conditions: 100–200 µM; cited from earlier work
# [11] = test system: MCF-7; set-up: method as in PMID 15680311; conditions: MCF-7, 50–200 µM; cited from earlier work
# [12] = test system: AGS cells; set-up: method as in PMID 15680311; conditions: 50–200 µM; cited from earlier work
# [13] = test system: SF-268 cells; set-up: method as in PMID 15680311; conditions: SF-268, 50–200 µM; cited from earlier work
# [14] = test system: HCT-116 cells; set-up: method as in PMID 15680311; conditions: HCT-116, 50–200 µM; cited from earlier work
# [15] = test system: NCI H460 cells; set-up: method as in PMID 15680311; conditions: NCI H460, 50–200 µM; cited from earlier work
# [16] = test system: A549 cells; set-up: method as in PMID 24124611; conditions: cited from earlier work
# [17] = test system: NCI-H441 cells; set-up: method as in PMID 24124611; conditions: cited from earlier work
# [18] = test system: SK-MES-1 cells; set-up: method as in PMID 24124611; conditions: cited from earlier work
# [19] = test system: LoVo cells; set-up: method as in PMID 20494645; conditions: LoVo parent cell line; cited from earlier work
# [20] = test system: HT29 cells; set-up: method as in PMID 17729219; conditions: cited from earlier work
# [21] = target: glyoxalase I; set-up: method as in PMID 20801663; conditions: read-out: IC50 for glyoxalase I inhibition; cited from earlier work
# [22] = test system: LoVo cell subline resistant to adriamycin; set-up: method as in PMID 20494645; conditions: cited from earlier work
# [23] = set-up: method as in PMID 17729219; conditions: DMEM medium, after 30 min; cited from earlier work
smiles,measurement,setting,value
"O=C(O)C(=O)CBr [3-BP, 3-bromopyruvic acid]",IC50,[1],16 to 84 µM
same,IC50,[2],22 ± 4 µM
same,IC50,[3],19 ± 3 µM
"Oc1cc(O)c2cc(O)c(-c3cc(O)c(O)c(O)c3)[o+]c2c1 [Delphinidin chloride, 3,3′,4′,5,5′,7-hexahydroxyflavylium]",induction of apoptosis,[4],induced apoptosis
same,viability,[5],did not affect the viability
same,viability,[6],did not affect the viability
same,viability,[7],concentration-dependently decreased the viability
same,viability,[8],decreased the viability
same,viability,[9],decreased the viability
same,viability,[10],decreased the viability
same,viability,[11],"decreased, concentration-dependently, the viability"
same,viability,[12],did not affect significantly the viability
same,viability,[13],did not affect significantly the viability
same,viability,[14],did not affect significantly the viability
same,viability,[15],did not affect significantly the viability
same,IC50,[16],55 µM
same,IC50,[17],58 µM
same,IC50,[18],44 µM
same,IC50,[19],38 µM
same,IC50,[20],35 µM
same,IC50,[21],1.9 µM
same,IC50,[22],16 ± 2 µM
same,stability in cell culture medium,[23],not detectable
